Experimental data as given in PubChem BioAssay (NCI).
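All cell lines were grown in 96-well plates and treated with compound for 48 hours. Here, GI50 denotes the concentration required for 50% inhibition of growth. TGI: total growth inhibition.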

Legend:
Assay in all cases: NCI tumour cell line growth inhibition, 48 h
[1] = tested on: EKVX NSCLC
[2] = tested on: BT-549 breast
[3] = tested on: SW-620 colon
[4] = tested on: MDA-MB-231 breast
[5] = tested on: TK-10 renal
[6] = tested on: HCT-116 colon
[7] = tested on: MALME-3M melanoma
[8] = tested on: K-562 leukemia
[9] = tested on: SR leukemia
[10] = tested on: HL-60(TB) leukemia

Row | Structure (SMILES) | TGI [1] | TGI [2] | TGI [3] | TGI [4] | TGI [5] | TGI [6] | TGI [7] | TGI [8] | TGI [9] | GI50 [10] | TGI [10] | GI50 [8] | GI50 [4] | GI50 [5] | GI50 [6] | GI50 [1] | GI50 [2] | GI50 [9] | GI50 [3] | GI50 [7]
1 | O=[N+]([O-])c1cc2c([N+](=O)[O-])cccc2o1 | 6.25 µM | 31.9 µM | 7.99 µM | 27.6 µM | 23.8 µM | > 100 µM | 30.1 µM |  |  |  |  |  |  |  |  |  |  |  |  | 
2 | CCOC(=O)CNc1nnnn1C1OC(CO)C(O)C1O (stereo not drawn) | > 100 µM |  | > 100 µM |  | > 100 µM | > 100 µM | > 100 µM | > 100 µM |  |  |  |  |  |  |  |  |  |  |  | 
3 | C=C(CCCO)[C@@H]1CC[C@@](C)(O)[C@H]1C | > 100 µM |  | > 100 µM |  | > 100 µM | > 100 µM | > 100 µM | > 100 µM | > 100 µM |  |  |  |  |  |  |  |  |  |  | 
4 | COc1cc(/C=C2\C[C@H]3[C@@H]4CC=C5C[C@@H](OC(C)=O)CC[C@]5(C)[C@H]4CC[C@]3(C)[C@H]2OC(C)=O)ccc1OCCN1CCCC1 |  |  |  | 17 µM | 19.7 µM | 30.7 µM |  | 12.6 µM |  | 10.3 µM | 20.6 µM | 4 µM | 9.01 µM | 9.07 µM | 10.5 µM |  |  |  |  | 
5 | O=C(O[C@H]1CCN2C[C@H]3C[C@H](CN4C(=O)CCC[C@H]34)[C@@H]2C1)c1ccc(O)cc1 | > 100 µM | > 100 µM | > 100 µM | > 100 µM | > 100 µM | > 100 µM | > 100 µM | > 100 µM | > 100 µM |  |  |  |  |  |  |  |  |  |  | 
6 | CCN(CC)CCNc1ccc2nc(C)n3c4ccc(O)cc4c(=O)c1c23 |  |  | 1.98 µM |  |  | 10.3 µM | 16.4 µM | 13.4 µM | 1.32 µM |  | 2.78 µM |  |  |  |  |  |  |  |  | 
7 | Cc1ccc2nc(NC(=O)/C(=N\NC(=S)NN)C3C(=O)NC(=S)NC3=O)sc2c1 | > 100 µM |  | > 100 µM |  | > 100 µM | > 100 µM | > 100 µM | > 100 µM | > 100 µM |  | > 100 µM |  |  |  |  |  |  |  |  | 
8 | COC[C@H](C)N=CN1CCc2ccccc2C1(Cc1ccccc1)Cc1ccccc1 | 92.6 µM |  | 63.1 µM |  | 38.8 µM | 29.7 µM | 24.7 µM | 29.3 µM | 42 µM |  |  |  |  |  |  |  |  |  |  | 
9 | O=C(/C=C/OC(=O)c1cccc(Cl)c1)c1ccc(Cl)cc1 | > 100 µM | > 77 µM | > 82 µM | > 100 µM | > 100 µM | > 100 µM | 39 µM | > 100 µM | > 92 µM |  |  | 34.5 µM | 52.2 µM | 32.7 µM | 31.3 µM | > 100 µM | 30.3 µM | 22.9 µM | 29.4 µM | 2.32 µM
10 | [CH3][Sn]([CH3])([CH3])[O][N+](=O)[O-] | > 10 µM |  | 4.8 µM | 7.35 µM | > 10 µM | > 10 µM |  | 7.39 µM | 3.33 µM | 4.03 µM | > 10 µM | 2.63 µM | 3.67 µM | > 10 µM | 2.9 µM | > 10 µM |  | 1.48 µM | 2.06 µM | 
11 | Cn1cnc([N+](=O)[O-])c1Sc1nccc(=O)[nH]1 | > 100 µM |  | > 100 µM |  | > 100 µM | > 100 µM | > 100 µM | > 100 µM | > 100 µM |  |  |  |  |  |  |  |  |  |  | 
12 | Cc1ccc(NC(=O)OCC(COc2ccc(Cl)cc2Cl)OC(=O)Nc2ccc(C)cc2)cc1 (stereo not drawn) | > 100 µM |  | > 100 µM |  |  | > 100 µM | > 100 µM |  |  |  |  |  |  |  |  |  |  |  |  | 
13 | CCN(CC)CCn1c2ccccc2c(=O)c2c(OC)ccc(OC)c21 | > 100 µM |  | > 100 µM |  |  | > 100 µM | > 100 µM | > 100 µM | > 100 µM |  | > 100 µM |  |  |  |  |  |  |  |  | 
14 | C=CCN(N=O)C(=O)NCCCCC(NC(C)=O)C(=O)NCc1ccccc1 (stereo not drawn) | > 100 µM |  | > 100 µM |  | > 100 µM |  | > 100 µM | > 100 µM |  |  | > 100 µM |  |  |  |  |  |  |  |  | 
15 | CC1C2CC=CC(=O)[C@@]2(C)CCC12OCCO2 (stereo partly drawn) | > 100 µM |  | > 100 µM |  | > 100 µM | > 100 µM | > 100 µM | > 100 µM | > 100 µM |  |  |  |  |  |  |  |  |  |  | 
16 | O=C(O)CCC(C(=O)O)N1C(=O)C2C3CCC(C3)C2C1=O (stereo not drawn) | > 100 µM | > 100 µM | > 100 µM | > 100 µM | > 100 µM | > 100 µM | > 100 µM | > 100 µM | > 100 µM |  |  |  |  |  |  |  |  |  |  | 
17 | COc1ccc2nc(NC(=O)C(=O)NNC(=O)c3ccncc3)sc2c1 | > 100 µM |  | > 100 µM |  | > 100 µM | > 100 µM | > 100 µM | > 100 µM |  |  | > 100 µM |  |  |  |  |  |  |  |  | 
18 | CCOCc1cc(=O)c2c(OC)cc3c(c2o1)CCC(C)(C)O3 | > 100 µM |  | > 100 µM |  | > 100 µM | > 100 µM | > 100 µM | > 100 µM | > 100 µM |  | > 100 µM |  |  |  |  |  |  |  |  | 
19 | CC(C)C1N2CCCCC2[C@@H]2c3[nH]c4ccccc4c3CCN12 (stereo partly drawn) | > 100 µM |  | > 100 µM |  |  | > 100 µM |  | > 100 µM |  |  | > 100 µM |  |  |  |  |  |  |  |  | 
20 | Cn1c2ccccc2c2c(=O)n(CCCC(=O)OC(=NC3CCCCC3)NC3CCCCC3)c3c(-c4ccccc4)nnn3c21 | > 100 µM | > 100 µM | > 100 µM | > 100 µM | > 100 µM | > 100 µM | > 100 µM | > 100 µM |  |  |  | > 100 µM | 71.7 µM | > 100 µM | 91.8 µM | > 100 µM | 72 µM |  | > 100 µM | > 100 µM
21 | CCOC(=O)C(=O)Nc1ccccc1C(C)C | > 100 µM |  | > 100 µM |  | > 100 µM | > 100 µM | > 100 µM | > 100 µM | > 100 µM |  | > 100 µM |  |  |  |  |  |  |  |  | 
22 | O=C1NC(c2cccc(OCc3ccccc3)c2)Nc2ccccc21 (stereo not drawn) | > 54 µM |  | > 100 µM | 4.69 µM | > 75.7 µM | 1.93 µM | 35 µM | 35.6 µM | 0.47 µM |  | < 0.0428 µM |  |  |  |  |  |  |  |  | 
23 | CCOC(=O)C(C(O)c1ccc([N+](=O)[O-])cc1)P(=O)(OCC)OCC (stereo not drawn) | > 100 µM |  | > 100 µM |  | > 100 µM | > 100 µM | > 100 µM | > 100 µM |  |  | 64 µM |  |  |  |  |  |  |  |  | 
24 | O=c1cc(-c2ccccc2)[nH]c2cc(Cl)ccc12 | > 100 µM |  | 16.9 µM |  | > 100 µM | > 100 µM | > 100 µM | 21.2 µM |  |  | 0.612 µM |  |  |  |  |  |  |  |  | 
25 | c1ccc(N/N=C2\NN=C(c3ccccc3)CS2)cc1 | 37.4 µM |  | 29.9 µM |  | 26.5 µM | 15.2 µM |  | 25.8 µM | > 100 µM |  | > 100 µM |  |  |  |  |  |  |  |  | 
